Source: ChEMBL document CHEMBL5107999, “Synthesis and biological evaluation of 4-hydroxy-methylpiperidinyl-N-benzyl-acylarylhydrazone hybrids designed as novel multifunctional drug candidates for Alzheimer's disease” (Bioorg Med Chem, 2022)
Activity calls are given as the source filed them. The rule behind the calls is not given here.

How the values were obtained:
Acetylcholinesterase [1] = target: T1, Acetylcholinesterase (Electrophorus electricus, UniProt O42275); test: Inhibition of Electrophorus electricus AchE assessed as inhibition constant
T1 sequence (O42275 whole entry): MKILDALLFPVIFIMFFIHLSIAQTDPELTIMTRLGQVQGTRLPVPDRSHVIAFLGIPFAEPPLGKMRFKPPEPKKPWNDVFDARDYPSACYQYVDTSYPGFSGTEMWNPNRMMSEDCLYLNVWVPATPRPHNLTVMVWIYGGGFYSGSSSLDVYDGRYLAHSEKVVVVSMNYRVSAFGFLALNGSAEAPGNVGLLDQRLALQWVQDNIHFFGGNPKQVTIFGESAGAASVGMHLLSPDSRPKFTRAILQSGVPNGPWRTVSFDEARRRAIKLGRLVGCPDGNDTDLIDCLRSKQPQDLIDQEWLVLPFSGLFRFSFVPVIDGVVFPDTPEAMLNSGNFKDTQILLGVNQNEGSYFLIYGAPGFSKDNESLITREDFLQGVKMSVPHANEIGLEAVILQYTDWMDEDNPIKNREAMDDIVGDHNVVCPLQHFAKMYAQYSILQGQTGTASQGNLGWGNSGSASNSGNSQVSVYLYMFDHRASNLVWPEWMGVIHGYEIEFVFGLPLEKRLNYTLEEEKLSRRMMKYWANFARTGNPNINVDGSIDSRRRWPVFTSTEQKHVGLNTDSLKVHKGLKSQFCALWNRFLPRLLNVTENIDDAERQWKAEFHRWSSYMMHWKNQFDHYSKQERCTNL

Acetylcholinesterase [2] = target: T1, Acetylcholinesterase; test: Inhibition of Electrophorus electricus AchE using acetylthiocholine iodide as substrate preincubated for 10 mins followed by substrate addition by spectrophotometric based Ellman's method
Cholinesterase = Cholinesterase (Equus caballus, UniProt P81908); test: Inhibition of equine serum BuChE using butyrylthiocholine as substrate preincubated for 10 mins followed by substrate addition by spectrophotometric based Ellman's method
Cholinesterase, sequence (P81908 whole entry): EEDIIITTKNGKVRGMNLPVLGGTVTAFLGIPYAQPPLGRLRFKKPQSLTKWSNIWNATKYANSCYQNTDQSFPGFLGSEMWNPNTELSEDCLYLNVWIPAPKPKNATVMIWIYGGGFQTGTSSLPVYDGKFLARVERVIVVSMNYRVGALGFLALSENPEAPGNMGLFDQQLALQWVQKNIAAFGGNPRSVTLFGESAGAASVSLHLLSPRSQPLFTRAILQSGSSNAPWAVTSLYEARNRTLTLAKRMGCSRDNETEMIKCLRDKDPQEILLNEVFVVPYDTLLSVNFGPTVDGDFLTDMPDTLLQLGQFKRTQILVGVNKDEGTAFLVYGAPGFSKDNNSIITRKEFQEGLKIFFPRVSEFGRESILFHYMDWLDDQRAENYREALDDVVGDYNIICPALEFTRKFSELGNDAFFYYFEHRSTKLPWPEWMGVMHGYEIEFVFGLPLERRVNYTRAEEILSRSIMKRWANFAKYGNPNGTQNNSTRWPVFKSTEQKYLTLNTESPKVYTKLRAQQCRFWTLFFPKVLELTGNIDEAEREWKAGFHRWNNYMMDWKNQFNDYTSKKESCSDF

SH-SY5Y [3] = test: Neuroprotective activity against t-BOOH induced neurotoxicity in human SH-SY5Y cells assessed as inhibition of ROS formation at 10 uM incubated for 30 mins by H2DCF-DA fluorescence assay; assay type: functional, cell-based
SH-SY5Y [4] = test: Cytotoxicity against human SH-SY5Y cells assessed as reduction in cell viability upto 40 uM incubated for 24 hrs by MTT assay; assay type: toxicity, cell-based
[5] = Selectivity ratio, ratio of IC50 for equine serum BuChE to IC50 for Electrophorus electricus AchE
SH-SY5Y [6] = test: Antioxidant activity against t-BOOH induced neurotoxicity in human SH-SY5Y cells at 10 uM; assay type: functional
HT-29 = test: Cytotoxicity against human HT-29 cells assessed as reduction in cell viability upto 30 uM incubated for 24 hrs by calcein/propidium iodide assay; assay type: toxicity, cell-based; settings: ht-29, 24 h
SH-SY5Y [7] = test: Cytotoxicity against human SH-SY5Y cells assessed as reduction in cell viability at 20 to 80 uM incubated for 24 hrs by MTT assay; assay type: toxicity, cell-based; settings: dose 20-80 µM
SH-SY5Y [8] = test: Antioxidant activity against t-BOOH induced neurotoxicity in human SH-SY5Y cells; assay type: functional, cell-based
SH-SY5Y [9] = test: Neuroprotective activity against amyloid beta (1 to 42) induced neurotoxicity in human SH-SY5Y cells assessed as increase in cell viability at 5 to 10 uM incubated for 4 hrs by MTT assay; assay type: functional, cell-based; settings: dose 5-10 µM
SH-SY5Y [10] = test: Neuroprotective activity against t-BOOH induced neurotoxicity in human SH-SY5Y cells assessed as inhibition of ROS formation at 2.5 to 10 uM incubated for 30 mins by H2DCF-DA fluorescence assay; assay type: functional, cell-based; settings: dose 2.5-10 µM
SH-SY5Y [11] = test: Neuroprotective activity against t-BOOH induced neurotoxicity in human SH-SY5Y cells assessed as increase in cell viability at 2.5 to 10 uM incubated for 4 hrs by MTT assay; assay type: functional, cell-based; settings: dose 2.5-10 µM
[12] = target: Amyloid-beta precursor protein (Homo sapiens) (UniProt P05067); test: Inhibition of amyloid beta (1 to 42) (unknown origin) self aggregation at 75 uM by Thioflavin T based fluorescence assay
Amyloid-beta precursor protein (Homo sapiens), sequence (P05067 whole entry): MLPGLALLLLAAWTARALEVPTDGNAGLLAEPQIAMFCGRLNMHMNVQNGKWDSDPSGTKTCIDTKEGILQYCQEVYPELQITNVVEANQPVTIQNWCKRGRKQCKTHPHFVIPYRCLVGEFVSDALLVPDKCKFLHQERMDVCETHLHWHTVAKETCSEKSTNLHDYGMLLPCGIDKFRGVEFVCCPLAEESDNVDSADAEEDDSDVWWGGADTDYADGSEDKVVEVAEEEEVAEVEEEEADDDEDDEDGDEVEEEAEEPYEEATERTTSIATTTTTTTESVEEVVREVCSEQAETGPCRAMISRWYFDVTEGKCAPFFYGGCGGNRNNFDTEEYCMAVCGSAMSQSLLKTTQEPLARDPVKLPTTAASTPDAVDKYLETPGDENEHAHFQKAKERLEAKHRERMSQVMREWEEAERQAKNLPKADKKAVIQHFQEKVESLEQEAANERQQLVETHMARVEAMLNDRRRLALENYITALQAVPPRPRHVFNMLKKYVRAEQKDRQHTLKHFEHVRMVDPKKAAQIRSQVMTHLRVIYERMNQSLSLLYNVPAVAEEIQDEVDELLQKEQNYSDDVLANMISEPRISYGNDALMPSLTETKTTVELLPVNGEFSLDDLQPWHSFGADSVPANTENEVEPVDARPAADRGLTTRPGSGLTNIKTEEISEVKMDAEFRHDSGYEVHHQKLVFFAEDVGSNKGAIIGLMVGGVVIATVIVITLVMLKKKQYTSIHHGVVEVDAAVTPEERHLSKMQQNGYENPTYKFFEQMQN

[13] = target: Acetylcholinesterase (Electrophorus electricus) (UniProt O42275); test: Inhibition of Electrophorus electricus AchE using acetylthiocholine iodide as substrate at 30 uM preincubated for 10 mins followed by substrate addition by spectrophotometric based Ellman's method
Acetylcholinesterase (Electrophorus electricus), sequence (O42275 24-633 limits assumed): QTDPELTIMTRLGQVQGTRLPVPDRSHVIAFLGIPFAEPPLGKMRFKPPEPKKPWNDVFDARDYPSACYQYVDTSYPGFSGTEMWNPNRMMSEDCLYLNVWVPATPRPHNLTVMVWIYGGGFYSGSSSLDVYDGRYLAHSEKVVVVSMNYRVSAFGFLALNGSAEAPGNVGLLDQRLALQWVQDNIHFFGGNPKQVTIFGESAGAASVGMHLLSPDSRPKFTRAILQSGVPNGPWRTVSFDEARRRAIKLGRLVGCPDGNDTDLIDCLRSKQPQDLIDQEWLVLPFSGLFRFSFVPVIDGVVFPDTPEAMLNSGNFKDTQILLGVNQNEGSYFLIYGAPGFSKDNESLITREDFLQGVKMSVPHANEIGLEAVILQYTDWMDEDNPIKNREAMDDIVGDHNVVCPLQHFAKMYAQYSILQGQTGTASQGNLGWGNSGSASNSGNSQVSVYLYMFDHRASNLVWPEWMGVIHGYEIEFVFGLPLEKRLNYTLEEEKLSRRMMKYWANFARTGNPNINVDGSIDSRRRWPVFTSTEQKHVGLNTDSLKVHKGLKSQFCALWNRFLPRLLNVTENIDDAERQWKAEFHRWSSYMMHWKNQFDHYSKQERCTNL

Row | SMILES | Ki (Acetylcholinesterase [1]) [µM] | IC50 (Acetylcholinesterase [2]) [µM] | IC50 (Cholinesterase) [µM] | Activity (SH-SY5Y [3]) | Activity (SH-SY5Y [4]) | Ratio IC50 [5] | inhibition at 10 µM (SH-SY5Y [6]) [%] | Activity (HT-29) | Activity (SH-SY5Y [7]) | IC50 (SH-SY5Y [8]) [µM] | Activity (SH-SY5Y [9]) | Activity (SH-SY5Y [10]) | Activity (SH-SY5Y [11]) | inhibition [12] [%] | inhibition [13] [%]
1 | O=C(N/N=C/c1ccc(Cl)cc1)c1ccc(CN2CCC(CO)CC2)cc1 | 3.55 | 5.6 | > 30 | Active | Non-Toxic | > 5.4 | 24.5 | Non-Toxic | – | – | – | – | – | – | –
2 | O=C(N/N=C/c1ccccc1F)c1ccc(CN2CCC(CO)CC2)cc1 | – | 12 | > 30 | – | – | > 2.5 | – | Non-Toxic | – | – | – | – | – | – | –
3 | O=C(N/N=C/c1ccc(N2CCCCC2)cc1)c1ccc(CN2CCC(CO)CC2)cc1 | 6.24 | 12 | > 30 | – | – | > 2.5 | – | Non-Toxic | Toxic | – | – | – | – | – | –
4 | O=C(N/N=C/c1cccc(F)c1)c1ccc(CN2CCC(CO)CC2)cc1 | – | 8.2 | > 30 | – | – | > 3.6 | – | Non-Toxic | – | – | – | – | – | – | –
5 | O=C(N/N=C/c1ccc(F)cc1)c1ccc(CN2CCC(CO)CC2)cc1 | – | 26.4 | > 30 | – | – | > 1.1 | – | Non-Toxic | – | – | – | – | – | – | –
6 | COc1ccc(/C=N/NC(=O)c2ccc(CN3CCC(CO)CC3)cc2)cc1 | – | 15.3 | > 30 | – | – | > 2 | – | Non-Toxic | – | – | – | – | – | – | –
7 | O=C(N/N=C/c1ccccc1O)c1ccc(CN2CCC(CO)CC2)cc1 | 3.81 | 5.9 | > 30 | – | – | > 5.1 | 67.1 | Non-Toxic | Toxic | 7.45 | Active | Active | Active | 30 | –
8 | O=C(N/N=C/c1cccc(Cl)c1)c1ccc(CN2CCC(CO)CC2)cc1 | 1.95 | 3.3 | 49.8 | Active | Non-Toxic | 15 | 46 | Non-Toxic | – | – | – | – | – | – | –
9 | O=C(N/N=C/c1ccc(O)cc1)c1ccc(CN2CCC(CO)CC2)cc1 | – | 25.1 | > 30 | – | – | > 1.2 | – | Non-Toxic | – | – | – | – | – | – | 45
10 | COc1ccccc1/C=N/NC(=O)c1ccc(CN2CCC(CO)CC2)cc1 | – | 13.5 | 12.9 | – | – | 1 | – | Non-Toxic | – | – | – | – | – | – | –
11 | O=C(N/N=C/c1ccccc1Cl)c1ccc(CN2CCC(CO)CC2)cc1 | – | 9 | 12.9 | – | – | 1.4 | – | Non-Toxic | – | – | – | – | – | – | –
12 | O=C(N/N=C/c1cccc(O)c1)c1ccc(CN2CCC(CO)CC2)cc1 | – | 13.9 | > 30 | – | – | > 2.2 | – | Non-Toxic | – | – | – | – | – | – | –
